Like-named read-outs stand apart in the source and are kept apart here. Marks after values point to notes of the source that are not given here.
What was measured:
[1] = Permeability (bidirectional transport) of flavonoids in Caco-2 cell monolayers; type: in vitro ADME; conditions: human; for Papp A→B at 60 min, 40 μM: Caco-2, apical to basolateral; for Papp A→B at 60 min, 40 μM / Papp B→A at 60 min, 40 μM: incubation 60 min, 37 °C, D-Hank's pH 7.4, mean ± SD, n = 3–6; for Papp B→A at 60 min, 40 μM: Caco-2, basolateral to apical; for efflux ratio at 60 min, 40 μM: pH 7.4, Caco-2 monolayer, read-out: Ratiop (ratio of Papp B to A to Papp A to B); for Papp at 1 h, 40 μM: Caco-2 monolayer
Procedure: Caco-2 cells were cultured in MEM supplemented with 10% FBS, 1% NEAA, penicillin (100 U/mL) and streptomycin (100 μg/mL) in an atmosphere of 5% CO2 and 90% relative humidity at 37 °C. All cells used in this study were between passages 35 and 45 [16].
Caco-2 cells were seeded at a density of about 8 × 10^4 cells/cm^2 on a 12 wells Millicell hanging insert and left to grow for 19–21 days to reach confluence. Culture medium was replaced every other day for 14 days and daily thereafter. The integrity and transport ability of the Caco-2 cells monolayer were examined by measuring the trans-epithelial electrical resistance (TEER) with a Millicell voltammeter (Millicell ERS-2, Merck Millipore, Billerica, MA, USA) and running standard assays using Lucifer yellow CH as paracellular flux marker. […] Differentiation of Caco-2 cells was checked after 4 and 12 days by determining the activity of alkaline phosphatase with an assay kit (Nanjing Jiancheng Bioengineering Institute, Nanjing, China) and after 21 days transmission electron microscopy was performed on Caco-2 monolayer to evaluate differentiation.
The Caco-2 cell monolayer was washed with D-Hank’s buffer (pH 7.4). Then, the flavonoid (40 μM) was added to either the apical (AP, 0.4 mL) or basolateral (BL, 1.95 mL) side, while the receiving chamber contained the corresponding volume of D-Hank’s buffer and incubated for 1 h at 37 °C. Solutions from both AP and BL sides of Caco-2 cell monolayer were collected and immediately frozen, lyophilized and preserved at −80 °C for high performance liquid chromatography (HPLC) analysis. Papp was calculated from Equation (1), where ΔQ/Δt is the rate of the flavonoid on the accepting chamber (μM/s), A is the surface area of the hanging insert (cm^2) and C0 is the initial concentration of tested flavonoid in donating chamber (μM/mL).(1) Papp=ΔQ/Δt/AC0

[2] = Stability of flavonoids in D-Hank's buffer relative to methanol; type: physicochemical; conditions: 20 μM flavonoid, HPLC peak area in D-Hank's / peak area in methanol × 100%
Procedure: The relative stability was expressed as the relative appearance of flavonoids in different solvents. Each flavonoid (20 μM) was dissolved in two different solvents, D-Hank’s and methanol. […] Relative concentration in D-Hank’s (%) = Peak area in D-Hank’s/Peak area in methanol × 100%(3)

[3] = Cell viability (MTT) assay of flavonoids in Caco-2 cells; type: cell-based; conditions: human
Procedure: The cytotoxicity of flavonoids and colchicine was evaluated by MTT assay. The cells were grown in 96-well plates at a density of 1 × 10^4 cells/well. After incubation with 40 μM flavonoid for 24 h, the cells were further incubated with an MTT solution (0.5 mg/mL) for 4 h at 37 °C. Finally, after removal of the supernatant, 150 μL dimethyl sulphoxide was added to each well to dissolve crystallized MTT. Absorbance was read at 570 nm with a multiskan spectrum microplate reader (Thermo Labsystems, Waltham, MA, USA). The percentage cell viability relative to that of the control cells was used as the cytotoxicity measure.

Caco-2 cell monolayer = assay: Cellular accumulation (CA) of flavonoids in Caco-2 cell monolayer; conditions: for Ratioc (ratio of CA B to A to CA A to B): Caco-2 monolayer; for CA A to B: accumulated in cell monolayer after transport apical to basolateral; for CA A to B / CA B to A: 40 μM, 1 h, normalized to cellular protein, mean ± SD, n = 3; for CA B to A: accumulated in cell monolayer after transport basolateral to apical; for CA: both sides (CA A to B and CA B to A)
[4] = Recovery (mass balance) of flavonoids during Caco-2 transport assay; type: in vitro ADME; conditions: human, Caco-2, mass balance, both sides of insert plus cells
Procedure: The recovery of the flavonoid glycosides during the transport assays was determined by mass balance and was measured as total amount of the flavonoids on both sides of the insert and in the Caco-2 cells.

[5] = Caco-2, pH 7.4, as stated in text, direction not specified (bilateral)
[6] = transport apical to basolateral, read-out: Recovery (A to B, %)
[7] = transport basolateral to apical, read-out: Recovery (B to A, %)

Compound	Papp A→B at 60 min, 40 μM [1]	Papp B→A at 60 min, 40 μM [1]	efflux ratio at 60 min, 40 μM [1]	Relative concentration of flavonoids, D-Hank's/methanol (%) [2]	viability at 24 h, 40 μM [3]	Ratioc (ratio of CA B to A to CA A to B) (Caco-2 cell monolayer)	CA A to B (Caco-2 cell monolayer)	CA B to A (Caco-2 cell monolayer)	Papp at 1 h, 40 μM [1, 5]	recovery [4, 6]	recovery [4, 7]	CA (Caco-2 cell monolayer)	Papp at 1 h, 40 μM ([1]; pH 7.4, direction not specified (bilateral))
O=c1cc(-c2ccccc2)oc2ccccc12 [Compound 1, Flavone]	22.4 ± 1.37 ×10⁻⁶ cm/s	21.7 ± 1.21 ×10⁻⁶ cm/s	0.97	60.10%	96.3 ± 9.79%	1.65	1.932 ± 0.051 µmol/g	3.183 ± 0.504 ^a μmol/g					
COc1ccc(-c2cc(=O)c3c(OC)c(OC)c(OC)c(OC)c3o2)cc1 [Compound 2, Tangertin]	21.9 ± 0.585 ×10⁻⁶ cm/s	23.9 ± 0.45 ×10⁻⁶ cm/s	1.1	12.09%	97.5 ± 3.53%	0.90	2.706 ± 0.174 µmol/g	2.423 ± 0.543 µmol/g					
COc1c(O)cc(O)c2c(=O)cc(-c3ccccc3)oc12 [Compound 3, Wogonin]	16.4 ± 1.2 ×10⁻⁶ cm/s	18.1 ± 1.62 ×10⁻⁶ cm/s			97.7 ± 8.39%		1.038 ± 0.212 µmol/g	1.586 ± 0.045 µmol/g					
O=c1cc(-c2ccccc2)oc2cc(O)c(O)c(O)c12 [Compound 4, Baicalein]	1.95 ± 0.53 ×10⁻⁶ cm/s	0.71 ± 0.21 ×10⁻⁶ cm/s			96.7 ± 6.31%		1.182 ± 0.341 µmol/g	3.272 ± 0.445 ^a μmol/g	< 2 ×10⁻⁶ cm/s				
O=c1cc(-c2ccc(O)c(O)c2)oc2cc(O)cc(O)c12 [Compound 5, Luteolin]	10.1 ± 7.33 ×10⁻⁶ cm/s	21.4 ± 2.12 ×10⁻⁶ cm/s	2.12	87.51%	101 ± 4.19%	2.23	3.876 ± 0.741 µmol/g	8.639 ± 1.275 ^b μmol/g					
O=c1cc(-c2ccc(O)cc2)oc2c([C@@H]3OC[C@H](O)[C@H](O)[C@H]3O)c(O)c([C@@H]3O[C@H](CO)[C@@H](O)[C@H](O)[C@H]3O)c(O)c12 [Compound 8, Schaftoside]	3.28 ± 0.32 ×10⁻⁶ cm/s	2.81 ± 0.24 ×10⁻⁶ cm/s			103 ± 4.77%		0.024 ± 0.002 µmol/g	0.044 ± 0.007 µmol/g	< 6 ×10⁻⁶ cm/s	72.3 ± 18.8%	61.8 ± 0.72%	< 0.26 µmol/g	
O=c1c(O)c(-c2ccccc2)oc2cc(O)cc(O)c12 [Compound 9, Galangin]	1.94 ± 0.41 ×10⁻⁶ cm/s	1.75 ± 0.44 ×10⁻⁶ cm/s			106 ± 7.79%		3.780 ± 0.711 µmol/g	9.286 ± 0.859 ^b μmol/g					
O=c1c(O)c(-c2ccc(O)c(O)c2)oc2cc(O)cc(O)c12 [Compound 10, Quercetin]	2.55 ± 1.45 ×10⁻⁶ cm/s	4.68 ± 0.41 ×10⁻⁶ cm/s	1.84	52.10%	102 ± 5.19%								
O=c1c(O)c(-c2ccc(O)cc2O)oc2cc(O)cc(O)c12 [Compound 11, Morin]	8.23 ± 0.87 ×10⁻⁶ cm/s	21.6 ± 0.32 ×10⁻⁶ cm/s			102 ± 3.62%		0.129 ± 0.008 ^b μmol/g	0.060 ± 0.011 µmol/g		81.5 ± 6.7%	90.1 ± 1.39%		
O=c1c(O)c(-c2ccc(O)cc2)oc2cc(O)cc(O)c12 [Compound 12, Kaempferol]	6.68 ± 0.93 ×10⁻⁶ cm/s	5.92 ± 0.45 ×10⁻⁶ cm/s			100 ± 4.53%		8.368 ± 1.039 µmol/g	11.887 ± 1.247 ^a μmol/g				> 6 µmol/g	
COc1ccc(-c2oc3cc(O)cc(O)c3c(=O)c2O)cc1 [Compound 13, Kaempferide]	0.35 ± 0.06 ×10⁻⁶ cm/s	0.23 ± 0.03 ×10⁻⁶ cm/s			102 ± 6.15%		2.746 ± 0.478 ^b μmol/g	0.496 ± 0.249 µmol/g					
COc1cc(-c2oc3cc(O)cc(O)c3c(=O)c2O)ccc1O [Compound 15, Isorhamnetin]	1.09 ± 0.02 ×10⁻⁶ cm/s	0.9 ± 0.42 ×10⁻⁶ cm/s			93.6 ± 1.22%		0.332 ± 0.066 ^a μmol/g	0.076 ± 0.048 µmol/g					
C[C@@H]1O[C@@H](O[C@H]2[C@H](Oc3cc(O)c4c(c3)O[C@H](c3ccc(O)cc3)CC4=O)O[C@H](CO)[C@@H](O)[C@@H]2O)[C@H](O)[C@H](O)[C@H]1O [Compound 20, Naringin]	3.73 ± 0.73 ×10⁻⁶ cm/s	5.09 ± 1.55 ×10⁻⁶ cm/s			99.1 ± 4.92%		0.058 ± 0.013 µmol/g	0.068 ± 0.011 µmol/g	< 6 ×10⁻⁶ cm/s	93.2 ± 7.62%	82.9 ± 11%		
O=C1c2c(O)cc(O)cc2OC(c2ccc(O)c(O)c2)C1O (stereo not drawn) [Compound 22, Taxifolin]	6.32 ± 1.16 ×10⁻⁶ cm/s	26.1 ± 2.08 ×10⁻⁶ cm/s			99.5 ± 2%				> 20 ×10⁻⁶ cm/s			not detected	
COc1ccc(-c2coc3cc(O)ccc3c2=O)cc1 [Compound 23, Formononetin]	17.4 ± 1.78 ×10⁻⁶ cm/s	18.3 ± 1.83 ×10⁻⁶ cm/s			94.6 ± 3.6%		3.819 ± 1.320 µmol/g	4.842 ± 0.424 µmol/g	> 10 ×10⁻⁶ cm/s				
COc1cc2c(=O)c(-c3ccc(O)cc3)coc2cc1O [Compound 25, Glycitein]	12.4 ± 0.91 ×10⁻⁶ cm/s	6.23 ± 0.46 ×10⁻⁶ cm/s			98.3 ± 4.6%		1.821 ± 0.774 ^a μmol/g	0.158 ± 0.021 µmol/g	> 10 ×10⁻⁶ cm/s				
O=c1c(-c2ccc(O)cc2)coc2cc(O)ccc12 [Compound 26, Daidzein]	33.9 ± 3.55 ×10⁻⁶ cm/s	42.2 ± 3.11 ×10⁻⁶ cm/s			105 ± 4.56%		0.500 ± 0.104 µmol/g	1.236 ± 0.117 ^b μmol/g	> 30 ×10⁻⁶ cm/s				
O=c1c(-c2ccc(O)cc2)coc2cc(O)cc(O)c12 [Compound 27, Genistein]	31.1 ± 2.13 ×10⁻⁶ cm/s	30.5 ± 2.13 ×10⁻⁶ cm/s			103 ± 3.37%		1.415 ± 0.276 µmol/g	2.777 ± 0.220 ^b μmol/g				< 5 µmol/g	> 30 ×10⁻⁶ cm/s
COc1ccc(-c2coc3cc(O)cc(O)c3c2=O)cc1 [Compound 28, Biochanin A]	11.1 ± 0.51 ×10⁻⁶ cm/s	10.7 ± 2.98 ×10⁻⁶ cm/s			106 ± 6.44%		6.766 ± 1.583 µmol/g	14.087 ± 1.287 ^b μmol/g	> 10 ×10⁻⁶ cm/s			> 6 µmol/g	
O=C(/C=C/c1ccc(O)cc1)c1ccc(O)cc1O [Compound 29, Isoliquiritigenin]	13.8 ± 0.73 ×10⁻⁶ cm/s	20 ± 1.29 ×10⁻⁶ cm/s			99.2 ± 7.94%		4.393 ± 0.790 µmol/g	8.804 ± 1.576 ^a μmol/g					
COc1ccc(CCC(=O)c2c(O)cc(O[C@@H]3O[C@H](CO)[C@@H](O)[C@H](O)[C@H]3O[C@@H]3O[C@@H](C)[C@H](O)[C@@H](O)[C@H]3O)cc2O)cc1O [Compound 30, Neohesperidin dihydrochalcone]	4.25 ± 0.53 ×10⁻⁶ cm/s	5.08 ± 1.08 ×10⁻⁶ cm/s			102 ± 6.35%		0.096 ± 0.010 µmol/g	0.251 ± 0.012 µmol/g	< 6 ×10⁻⁶ cm/s	78.7 ± 1.3%	79.5 ± 1.24%		
